Measurements as given in patent publication US20240025919A1, “AZA-TETRACYCLIC OXAZEPINE COMPOUNDS AND USES THEREOF” (Genentech, Inc., priority 2022, published 2024).
Values joined by “and” are separate entries in the source; they are usually repeats but may differ in a detail not shown here. Equal values may be shown once. Read-outs that look alike come from different tables or passages of the source.

Assays:
[1] = tested on: HPAC (homozygous mutant KRAS G12D human pancreatic cell line); test: KRAS 3D-Cell Proliferation Assay, HPAC (CellTiter-Glo 3D, 7 days); assay type: cell-based; settings: HPAC 3D culture, read-out: Prolif HPAC 3D ATP IC50
Method in brief: (§1)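 Cells were grown as 3D cultures in ultra-low attachment plates in RPMI-1640 with 10% FBS and 2 mM glutamine. Compound dilution series (0.3% DMSO final) were added after overnight culture, and plates were incubated for 7 days at 37 °C. CellTiter-Glo 3D luminescence was normalised to DMSO and 1 uM staurosporine, and IC50 was taken from 4-parameter Hill fits.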

KRAS WT [2] = target: T1, KRAS WT (Homo sapiens (Human), UniProt P01116); test: KRAS WT Biochemical Assay, BODIPY-GDP Exchange TR-FRET (Example 502; 0.06 nM KRAS WT, 15 nM GDP, 300 nM SOS1, 120-minute incubation); settings: read-out: KRas HTRF IC50
Method in brief: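 IC50 from a 4-parameter Hill fit of percent inhibition, itself the TR-FRET 520/490 nm ratio scaled between DMSO and a fully inhibiting control. Reaction: 300 nM SOS1 and 300 nM BODIPY-GDP added to preformed 0.06 nM KRAS WT/15 nM GDP/Tb-streptavidin complex; 120 min incubation; pH 7.5 HEPES, MgCl2, DTT.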

[3] = tested on: AsPC-1 (homozygous mutant KRAS G12D human pancreatic cell line); test: KRAS 3D-Cell Proliferation Assay, AsPC-1 (CellTiter-Glo 3D, 7 days); assay type: cell-based; settings: AsPC-1 3D culture, read-out: Prolif AsPC-1 3D ATP IC50
Protocol: (§2) Example 503: KRAS 3D-Cell Proliferation Assays. Cellular potencies of compounds are assessed by evaluating inhibition of proliferation in 3D cultures of homozygous mutant KRAS G12D human pancreatic cell lines (AsPC-1 and HPAC) as compared to a KRAS wild type human lung adenocarcinoma cell line (PC-9 and/or H1975). Cells are seeded into 384-well black round-bottom, ultra-low attachment assay plates in 50 uL cell growth medium (RPMI-1640 with 10% fetal bovine serum and 2 mM L-glutamine). After overnight incubation at 37° C. and 5% CO2, compounds solubilized in DMSO are added as dilution series to the wells in a total volume of 150 nL (0.3% DMSO final). The cells are incubated for 7 days at 37° C. and 5% CO2. Cell proliferation is quantitated by addition of 40 uL/well of CellTiter-GloO 3D (Promega), and the well contents are mixed 20× at high speed using liquid handling automation workstation (Bravo with 384-well head) and centrifuged at 1500 rpm for 2 minutes to eliminate bubbles. This reagent in combination with mechanical disruption releases the cellular ATP to promote activity in a luciferase-based enzyme/substrate chemiluminescent detection system. After a 30-minute incubation under ambient conditions with shaking and an additional 10 minutes without shaking, the luminescence is read on a plate reader (e.g. EnVision [PerkinElmer]). The results are normalized to percent inhibition based on the following control samples: DMSO (0% inhibition) and 1 uM staurosporine (100% inhibition). The normalized luminescence results are plotted against compound concentration, and the data are fit to a 4-parameter Hill equation to determine the IC50 values.

[4] = tested on: H1975 (KRAS wild type human lung adenocarcinoma cell line); test: KRAS 3D-Cell Proliferation Assay, H1975 (CellTiter-Glo 3D, 7 days); assay type: cell-based; settings: H1975 3D culture, read-out: Prolif H1975 3D ATP IC50
Method in brief: as §1

KRAS G12D = KRAS G12D (Homo sapiens (Human), UniProt P01116, G12D); test: KRAS G12D LoEnz Biochemical Assay, BODIPY-GDP Exchange TR-FRET (SOS1-mediated nucleotide exchange); settings: read-out: KRas (G12D) GDP HTRF IC50
KRAS WT [5] = target: T1, KRAS WT; test: KRAS WT Biochemical Assay, BODIPY-GDP Exchange TR-FRET (Example 501; 3 nM KRAS WT, 3 nM SOS1, 60-minute incubation)
Method in brief: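 SOS1-mediated exchange assay: 3 nM biotin-KRAS WT with terbium-streptavidin, started with 3 nM SOS1 and 300 nM BODIPY-GDP, HEPES pH 7.5 with MgCl2. TR-FRET (520/490 nm) read after 60 min; normalized to DMSO and full-inhibition control, IC50 from 4-parameter Hill fit.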

[6] = tested on: PC-9 (KRAS wild type human lung adenocarcinoma cell line); test: KRAS 3D-Cell Proliferation Assay, PC-9 (CellTiter-Glo 3D, 7 days); assay type: cell-based; settings: PC-9 3D culture, read-out: Prolif PC9 3D ATP IC50
Protocol: as §2

[7] = read-out: KRas(wt) GDP HTRF IC50

Chain of KRAS G12D (P01116-2 other isoform, or with tags, fused parts or gaps G12D): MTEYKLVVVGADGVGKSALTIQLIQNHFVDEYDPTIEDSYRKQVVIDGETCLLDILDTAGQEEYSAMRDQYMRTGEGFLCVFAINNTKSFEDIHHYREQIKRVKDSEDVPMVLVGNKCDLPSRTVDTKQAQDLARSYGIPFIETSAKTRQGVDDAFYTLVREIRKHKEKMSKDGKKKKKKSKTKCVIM
T1 sequence (P01116-2 other isoform, or with tags, fused parts or gaps): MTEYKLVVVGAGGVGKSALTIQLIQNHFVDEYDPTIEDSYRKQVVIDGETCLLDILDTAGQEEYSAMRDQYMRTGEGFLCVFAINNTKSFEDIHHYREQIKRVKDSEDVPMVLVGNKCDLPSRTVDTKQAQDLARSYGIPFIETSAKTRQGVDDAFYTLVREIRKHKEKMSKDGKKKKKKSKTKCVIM

| Structure (SMILES) | IC50 ([1]; Homo sapiens, HPAC, 168 h) [nM] | IC50 (KRAS WT [2]) [nM] | IC50 ([3]; Homo sapiens, ASPC1, 168 h) [nM] | IC50 ([4]; Homo sapiens, NCI-H1975, 168 h) [nM] | IC50 (KRAS G12D) [nM] | IC50 [1] [nM] | IC50 [3] [nM] | IC50 [4] [nM] | IC50 (KRAS WT [5]; read-out: KRas HTRF IC50) [nM] | IC50 (KRAS WT [5]; [7]) | IC50 [6] [nM] | IC50 ([6]; Homo sapiens, PC-9, 168 h) [nM] |
| --- | --- | --- | --- | --- | --- | --- | --- | --- | --- | --- | --- | --- |
| Cc1c(F)c(N)cc(-c2nc3c4c(nc(OC[C@]5(CN6CC7(COC7)C6)CC5(F)F)nc4c2F)N2C[C@H]4CC[C@H](N4)[C@H]2[C@H](C)O3)c1C(F)(F)F (mixture of isomers) [165 a, 5-((5S,5aS,6S,9R)-12-((1-((2-Oxa-6-azaspiro[3.3]heptan-6-yl)methyl)-2,2-difluorocyclopropyl)methoxy)-1-fluoro-5-methyl-5a,6,7,8,9,10-hexahydro-5H-4-oxa-3,10a,11,13,14-pentaaza[6,9]methanonaphtho[1,8-ab]heptalen-2-yl)-2-fluoro-3-methyl-4-(trifluoromethyl)aniline] | 0.63 | 1.14 | 0.6 | 374 | 0.08 | – | – | – | – | – | – | – |
| Cc1c(F)c(N)cc(-c2nc3c4c(nc(OC[C@]56CCC[C@@H]5N(C)CCC6)nc4c2F)N2C[C@H]4CC[C@H](N4)[C@H]2[C@H](C)O3)c1C(F)(F)F (single isomer, unassigned) [126 (isomer 1)] | 0.51 | 0.42 | 0.6 | 770 | 0.1 | – | – | – | – | – | – | – |
| Cc1c(F)c(N)cc(-c2nc3c4c(nc(OC[C@]5(CN6CC7(COC7)C6)CC5(F)F)nc4c2F)N2C[C@H]4CC[C@H](N4)[C@H]2[C@H](C)O3)c1C(F)(F)F (single isomer, unassigned) [165 b] | – | 1.43 | – | – | 0.1 | 0.66 | 0.849 | 499 | – | – | – | – |
| Cc1c(F)c(N)cc(-c2nc3c4c(nc(OC[C@@]56CCCN5C[C@H](F)C6)nc4c2F)N2C[C@H]4CC[C@H](N4)[C@@H]2C(C)O3)c1C(F)(F)F (single isomer, unassigned) [237 (isomer 2)] | – | – | 200 | – | 0.15 | – | – | – | 0.35 | – | – | – |
| Cc1c(F)c(N)cc(-c2nc3c4c(nc(OC[C@]56CCN(C)C5COC6)nc4c2F)N2C[C@H]4CC[C@H](N4)[C@H]2[C@H](C)O3)c1C(F)(F)F (single isomer, unassigned) [258 (isomer 2)] | 2.68 | – | 6.9 | 1550 | 0.07 | – | – | – | 11 | – | – | – |
| Cc1cc(N)c(F)c(-c2nc3c4c(nc(OCC56CCN5CC(F)(F)C6)nc4c2F)N2C[C@H]4CC[C@H](N4)[C@H]2[C@H](C)O3)c1 (single isomer, unassigned) [Compound 23] | – | – | – | – | – | – | 20000 | – | – | 39500 nM and 94500 nM | – | – |
| CN1CCC2COc3nc(-c4cc(O)cc5cccc(F)c45)c(F)c4nc(OC[C@@]56CCCN5C[C@H](F)C6)nc(c34)N2CC1 (single isomer, unassigned) [Compound 49] | – | – | 20000 | – | – | – | – | – | – | 561 nM and 331 nM | 4240 | – |
| Cc1c(F)c(N)cc(-c2nc3c4c(nc(OC[C@]5(CN6CC7(COC7)C6)CC5(F)F)nc4c2F)N2C[C@H]4CC[C@H](N4)[C@H]2[C@H](C)O3)c1C(F)(F)F (stereo in doubt) [165 c, 5-((5S,5aS,6S,9R)-12-((1-((2-Oxa-6-azaspiro[3.3]heptan-6-yl)methyl)-2,2-difluorocyclopropyl)methoxy)-1-fluoro-5-methyl-5a,6,7,8,9,10-hexahydro-5H-4-oxa-3,10a,11,13,14-pentaaza[6,9]methanonaphtho[1,8-ab]heptalen-2-yl)-2-fluoro-3-methyl-4-(trifluoromethyl)aniline] | – | 2.19 | – | – | 0.09 | 1.09 | 1.1 | 481 | – | – | – | – |
| Cc1c(F)c(N)cc(-c2nc3c4c(nc(OC[C@]5(CN6CC7(COC7)C6)CC5(F)F)nc4c2F)N2C[C@H]4CC[C@H](N4)[C@H]2[C@H](C(F)(F)F)O3)c1C(F)(F)F (stereo in doubt) [255 a, 5-((5R,5aS,6S,9R)-12-(((R)-1-((2-oxa-6-azaspiro[3.3]heptan-6-yl)methyl)-2,2-difluorocyclopropyl)methoxy)-1-fluoro-5-(trifluoromethyl)-5a,6,7,8,9,10-hexahydro-5H-4-oxa-3,10a,11,13,14-pentaaza[6,9]methanonaphtho[1,8-ab]heptalen-2-yl)-2-fluoro-3-methyl-4-(trifluoromethyl)aniline] | – | – | 6.6 | – | 0.41 | 1.66 | – | 120 | 1.39 | – | – | – |
| Cc1c(F)c(N)cc(-c2nc3c4c(nc(OC[C@]5(CN6CC7(COC7)C6)CC5(F)F)nc4c2F)N2C[C@H]4CC[C@H](N4)[C@H]2[C@H](C(F)(F)F)O3)c1C(F)(F)F (stereo in doubt) [255 b, 5-((5R,5aS,6S,9R)-12-(((R)-1-((2-oxa-6-azaspiro[3.3]heptan-6-yl)methyl)-2,2-difluorocyclopropyl)methoxy)-1-fluoro-5-(trifluoromethyl)-5a,6,7,8,9,10-hexahydro-5H-4-oxa-3,10a,11,13,14-pentaaza[6,9]methanonaphtho[1,8-ab]heptalen-2-yl)-2-fluoro-3-methyl-4-(trifluoromethyl)aniline] | – | – | – | – | 0.27 | 4.21 | 4.7 | 308 | 1.17 | – | – | – |
| C=C1CN2CCC[C@@]2(COc2nc3c4c(nc(-c5nc(N)cc(C)c5C(F)(F)F)c(F)c4n2)O[C@@H](C)[C@@H]2[C@@H]4CC[C@H](CN32)N4)C1 [Compound 48, 6-((5S,5aS,6S,9R)-1-fluoro-5-methyl-12-(((S)-2-methylenetetrahydro-1H-pyrrolizin-7a(5H)-yl)methoxy)-5a,6,7,8,9,10-hexahydro-5H-4-oxa-3,10a,11,13,14-pentaaza-6,9-methanonaphtho[1,8-ab]heptalen-2-yl)-4-methyl-5-(trifluoromethyl)pyridin-2-amine] | – | 28.5 | – | – | 0.491 | – | – | – | – | 10.5 nM | – | 20000 |
| Nc1nc2c(-c3nc4c5c(ncnc5c3F)N3C[C@H]5CC[C@H](N5)[C@H]3CO4)ccc(F)c2s1 [Compound 55, 7-fluoro-4-((5aS,6S,9R)-1-fluoro-5a,6,7,8,9,10-hexahydro-5H-4-oxa-3,10a,11,13,14-pentaaza-6,9-methanonaphtho[1,8-ab]heptalen-2-yl)benzo[d]thiazol-2-amine] | – | – | 20000 | – | 22200 | – | – | – | – | 200000 nM | – | – |
| C[C@@H]1Oc2nc(-c3cc(N)nc4ccccc34)c(F)c3nc(OC[C@]45CCN4CC(F)(F)C5)nc(c23)N2C[C@H]3CC[C@H](N3)[C@@H]12 [Compound 79, 4-((5S,5aS,6S,9R)-12-(((R)-3,3-Difluoro-1-azabicyclo[3.2.0]heptan-5-yl)methoxy)-1-fluoro-5-methyl-5a,6,7,8,9,10-hexahydro-5H-4-oxa-3,10a,11,13,14-pentaaza-6,9-methanonaphtho[1,8-ab]heptalen-2-yl)quinolin-2-amine] | – | 1530 | – | – | 22.7 | – | 4040 | – | – | 954 nM | 20000 | – |
| Cc1ccnc(-c2nc3c4c(nc(OC[C@]56CCN5CC(F)(F)C6)nc4c2F)N2C[C@H]4CC[C@H](N4)[C@H]2[C@H](C)O3)c1C(F)(F)F [Compound 88, (5S,5aS,6S,9R)-12-(((R)-3,3-Difluoro-1-azabicyclo[3.2.0]heptan-5-yl)methoxy)-1-fluoro-5-methyl-2-(4-methyl-3-(trifluoromethyl)pyridin-2-yl)-5a,6,7,8,9,10-hexahydro-5H-4-oxa-3,10a,11,13,14-pentaaza-6,9-methanonaphtho[1,8-ab]heptalene] | – | 1620 | 20000 | – | 1470 | – | – | – | – | – | – | 20000 |
